# Experimental data reported in patent US20020035097A1, “Method of preventing and treating chemotherapy-induced alopecia” (priority 1991, published 2002).
# Assays:
# Type in all cases: in vivo, rat
# VP-16-induced alopecia = experiment: VP-16 (Etoposide)-induced alopecia in young rats
# Procedure: Twelve 7 day old rats were randomized in two groups. Group I was treated daily with buffer 0.1 ml s.c. for four days. The second Group was treated daily with Vitamin D3 50 μg s.c. over head for four days. After stopping the buffer or Vitamin D3 treatment, all rats received 1.5 mg/kg i.p. of VP-16 (Etoposide) daily for three days.
# (§1) 1,25-Dihydroxyvitamin D3 was dissolved in absolute ethanol and applied topically with an applicator. Control animals were similarly treated with the same amount of ethanol. Animals were then kept individually separated for a period of three hours following which the treated area was carefully washed with soap and water and dried. Treatment was given daily beginning on day 5 after birth and ending on day 10.
# (§2) All chemotherapies were given I.P. and started at 11 days of age. CTX, 35 mg/kg, was given for one day only. VP-16, 1.5 mg/kg, was given for three days. For CTX and ADM combination, CTX, 25 mg/kg was given for one day and ADM, 2.5 mg/kg, for three days. At these doses neither CTX nor ADM alone will produce alopecia. Alopecia was recorded on the tenth day from beginning chemotherapy.
# (§3) A total of 4 experiments were carried out. In the first experiment, protection from Cytoxan-induced alopecia was examined. The experimental group was pretreated with 0.2 μg of 1,25-dihydroxyvitamin D3 in 0.15 ml of absolute ethanol applied topically over the head and neck and the control group received 0.15 ml of alcohol. All 10 rats in the control group became totally alopecic. […] The second experiment was carried out under similar conditions to examine protection from VP-16-induced alopecia. All 10 rats in the control group developed total body alopecia. […] The third experiment was designed to examine protection from alopecia induced by Cytoxan-Adriamycin combination. There were 11 rats in each group. Six rats in the control group developed alopecia over the head and neck and 5 rats developed total body alopecia. […] In the fourth experiment, protection from VP-16-induced alopecia was similarly examined except that the dose of 1,25-dihydroxyvitamin D3 was reduced to 0.1 μg in 0.1 ml absolute ethanol applied topically over the head area only. All 10 rats in the control group became completely alopecic.
# as §1, with “RO 23-7553 (1,25 dihydroxy-16-ene-23-yne-cholecalciferol)” for “1,25-Dihydroxyvitamin D3”, “9” for “5”, “14.” for “10.”
# On day 15 all animals received VP-16, 1.5 mg/kg i.p., for three days. Alopecia was recorded on day 25.
# Thirteen rats were randomized in two groups. Experimental group, 7 rats; control group, 6 rats. The experimental group was pretreated with 1 μg of RO 23-7553 in 0.2 ml absolute ethanol applied topically over the neck and back and the control group received 0.2 ml of absolute ethanol. All six rats in the control group became totally alopecic over the neck and back.
# [1] = tested on: Cytoxan/Adriamycin-induced alopecia; experiment: Cytoxan/Adriamycin combination-induced alopecia in young rats
# Procedure: Eight 4-day old Sprague Dawley rats were randomized in two groups of 4 rats each. Group I, received EGF […] s.c. on the head daily for 7 days. Group II received buffer injections and served as controls. One day after stopping EGF or buffer injections all rats received Cytoxan 25 mg/kg i.p.×1 day and Adriamycin 2.5 mg/kg i.p.×3 days. […] (FIG. 5).
# as §1
# as §2, with “At these doses neither CTX nor ADM alone will produce alopecia.” left out
# as §3, with “alcohol.” for “alcohol. All 10 rats in the control group became totally alopecic.”, “VP-16-induced” for “VP-16-induced alopecia. All 10 rats in the control group developed total body”, “group.” for “group. Six rats in the control group developed alopecia over the head and neck and 5 rats developed total body alopecia.”, “only.” for “only. All 10 rats in the control group became completely alopecic.”
# ARA-C-induced alopecia = ARA-C-induced alopecia in young rats
# Procedure: Sprague Dawley rats were purchased from Charles River Laboratories, Wilmington, Mass. Cytosar-U (ARA-C) was from the Upjohn Company, Kalamazoo, Mich. Receptor grade EGF from mouse submaxillary glands, human recombinant EGF, dimethyl sulfoxide (DMSO) and Vitamin D3 were purchased from Sigma Chemical Co., St. Louis, Mo. aFGF was purchased from AMGEN Corp., Thousand Oaks, Calif.
# All rats from each experiment were treated with ARA-C 50 mg/kg intraperitoneally (i.p.) daily for 7 days. For subcutaneous (s.c.) injections, EGF and FGF were prepared in PBS 1% BSA. Alopecia was always recorded on day 12 of experiment, and scored as previously described (Hussein et al, Science, 249:1564-1566, 1990; Jimenez et al, FASEB J., 1991).
# For topical treatment, murine EGF was prepared as follows: One vial of EGF (100 μg) was dissolved in 0.2 ml of PBS 1% BSA and 0.12 ml of this solution was added to 0.48 of DMSO. Three hours prior to ARA-C injection, 0.1 ml of the EGF-DMSO mixture was applied to each rat over a 1 cm^2 area between the shoulders using a rubber tip applicator. Rats were then kept individually separated for a period of three hours, following which the treated area was carefully washed with soap and water and dried. Treatment was continued for 7 days. Control animals were similarly treated using DMSO without EGF.
# Two separate experiments were conducted to test the ability of murine EGF to protect from ARA-C-induced alopecia. In Experiment I, twenty-two 7-day old rats were randomized in two groups of eleven rats each. In addition to ARA-C, Group I received 2 μg of mouse EGF s.c. in the back between the two hind legs 3 hours prior to ARA-C injections daily for 7 days. Group II, received buffer solution similarly and served as control. Ten of eleven rats in Group II developed virtually total body alopecia and one rat developed more than 50% hair loss. In contrast, in Group I, 5 rats had no detectable hair loss and 6 rats had mild hair loss (Table I, Experiment I (FIG. 1)). In Experiment II, twelve 7-day old rats were randomized in two groups of 6 rats each. In addition to ARA-C, Group I received mouse EGF 1 μg s.c. daily for 7 days. Group II received buffer s.c. All 6 rats in Group II developed moderately severe to severe alopecia, whereas in Group I, one rat had no detectable hair loss and 5 rats developed only minimal hair loss (Table I, Experiment II).
# For the next experiment, rHu-EGF was used. Twelve 7-day old rats were randomized in two groups of six rats each. In addition to ARA-C, Group I received rHu-EGF 2 μg s.c. in the flank area daily for 7 days. Group II received buffer s.c. All 6 rats in Group II developed total body alopecia, whereas in Group I none of the rats had total body alopecia, one rat had no detectable hair loss, four rats had mild alopecia and one rat had moderate alopecia (Table I, Experiment III, (FIG. 2)).
# In the next experiment, twelve 7-day old rats were randomized in two groups of six rats each. Group I, in addition to ARA-C, received murine-EGF 10 μg in DMSO daily×7 days rubbed topically with a cotton tip applicator between the shoulder blades over an area of 1 cm^2. Group II received control solution topically. In Group II, all six rats developed complete body alopecia.
# Fourteen 7-day old rats were randomized in two groups. All rats received ARA-C 50 mg/kg/day for seven days. In addition, Group I received aFGF 2 μg s.c. on back of head daily for seven days. Group II received buffer injections and served as controls. Alopecia was recorded on day 12 of experiment. All rats in Group II developed complete body alopecia.
# Cytoxan-induced alopecia = Cytoxan-induced alopecia in young rats; settings: 50 μg daily i.p. or s.c. for 4 days prior to chemotherapy; Cytoxan 32.5 mg/kg single injection; 7 experiments, 89 animals
# [2] = 2μ s.c. on the head daily for 7 days, then Cytoxan 25 mg/kg i.p. × 1 day and Adriamycin 2.5 mg/kg i.p. × 3 days, 4 rats
# [3] = Experiment I, 2 μg s.c. daily × 7 days, 3 hours prior to ARA-C 50 mg/kg i.p. × 7 days, 11 rats, day 12
# [4] = Experiment II, 1 μg s.c. daily × 7 days with ARA-C 50 mg/kg i.p. × 7 days, 6 rats, day 12
# [5] = Experiment III, 2 μg s.c. in flank daily × 7 days with ARA-C 50 mg/kg i.p. × 7 days, 6 rats, day 12
# [6] = Experiment III, 2 μg s.c. in flank daily × 7 days with ARA-C 50 mg/kg i.p. × 7 days, 6 rats, day 12, listed as rHu-ECF
molecule,measurement,setting,value
"C=C1/C(=C\C=C2/CCC[C@]3(C)C([C@H](C)CC#CC(C)(C)O)=CC[C@@H]23)C[C@@H](O)C[C@@H]1O [RO 23-7553, 1,25 dihydroxy-16-ene-23-yne-cholecalciferol]",Protection from VP-16-induced alopecia,"VP-16-induced alopecia; 1 μg in 0.2 ml absolute ethanol topically over neck and back, day 9 to 14 after birth, VP-16 1.5 mg/kg i.p. for three days from day 15, recorded day 25, 7 rats",all animals in the experimental group were protected
C=C1CC[C@H](O)C/C1=C/C=C1\CCC[C@]2(C)[C@@H]([C@H](C)CCCC(C)C)CC[C@@H]12 [Vitamin D3],Protection from alopecia,"[1]; 50 μg daily i.p. or s.c. for 4 days prior to chemotherapy, Adriamycin 2.5 mg/kg i.p. daily for 3 days plus Cytoxan 25 mg/kg single injection, 6 experiments, 77 animals",excellent protection and Yes*
same,Protection from alopecia,"ARA-C-induced alopecia; 50 μg daily i.p. or s.c. for 4 days prior to chemotherapy, ARA-C 50 mg/kg i.p. daily for 7 days, 1 experiment, 8 animals",excellent protection and Yes*
same,Protection from alopecia,Cytoxan-induced alopecia,excellent protection and Yes*
same,Protection from alopecia,"VP-16-induced alopecia; 50 μg daily i.p. or s.c. for 4 days prior to chemotherapy, VP-16 1.5 mg/kg i.p. daily for 3 days, 2 experiments, 22 animals",excellent protection and Yes*
same,Protection from VP-16-induced alopecia,"VP-16-induced alopecia; 50 μg s.c. over head daily for four days, then VP-16 1.5 mg/kg i.p. daily for three days",protected
"Murine EGF: Receptor grade EGF from mouse submaxillary glands (Sigma) (NSYPGCPSSYDGYCLNGGVCMHIESLDSYTCNCVIGYSGDRCQTRDLRWWELR; Epidermal growth factor; UniProt P01132 977-1029, looked up)",Number of rats with mild alopecia over head and neck,[1]; [2],one
same,Number of rats with minimal alopecia over head and neck,[1]; [2],one
same,Number of rats with no detectable alopecia over head and neck,[1]; [2],two
same,Alopecia after topical treatment,"ARA-C-induced alopecia; 10 μg in DMSO daily × 7 days topically between shoulder blades over 1 cm^2, ARA-C 50 mg/kg × 7 days, 6 rats",all rats developed complete body alopecia except where the EGF was applied topically
same,Number of rats with alopecia 0 (no detectable alopecia),ARA-C-induced alopecia; [3],5
same,"Number of rats with alopecia 1+ (mild, less than 50% hair loss)",ARA-C-induced alopecia; [3],6
same,"Number of rats with alopecia 2+ (moderately severe, more than 50% hair loss)",ARA-C-induced alopecia; [3],0
same,"Number of rats with alopecia 3+ (total or virtually total, >90% hair loss)",ARA-C-induced alopecia; [3],0
same,Number of rats with alopecia 0 (no detectable alopecia),ARA-C-induced alopecia; [4],1
same,"Number of rats with alopecia 1+ (mild, less than 50% hair loss)",ARA-C-induced alopecia; [4],5
same,"Number of rats with alopecia 2+ (moderately severe, more than 50% hair loss)",ARA-C-induced alopecia; [4],0
same,"Number of rats with alopecia 3+ (total or virtually total, >90% hair loss)",ARA-C-induced alopecia; [4],0
same,Number of rats with alopecia 0 (no detectable alopecia),"ARA-C-induced alopecia; Experiment II, 1 μg s.c. daily × 7 days with ARA-C 50 mg/kg i.p. × 7 days, 6 rats, day 12, listed as mouse EGF",one
"aFGF: aFGF, a fibroblast growth factor, purchased from AMGEN Corp.",Protection from ARA-C-induced alopecia,"ARA-C-induced alopecia; 2 μg s.c. on back of head daily for seven days, ARA-C 50 mg/kg/day for seven days, day 12",protected locally at the site of injection
rHu-EGF: human recombinant EGF (Sigma),Number of rats with alopecia 0 (no detectable alopecia),ARA-C-induced alopecia; [5],one
same,"Number of rats with alopecia 1+ (mild, less than 50% hair loss)",ARA-C-induced alopecia; [5],four
same,"Number of rats with alopecia 2+ (moderately severe, more than 50% hair loss)",ARA-C-induced alopecia; [5],one
same,"Number of rats with alopecia 3+ (total or virtually total, >90% hair loss)",ARA-C-induced alopecia; [5],none
same,Number of rats with alopecia 0 (no detectable alopecia),ARA-C-induced alopecia; [6],1
same,"Number of rats with alopecia 1+ (mild, less than 50% hair loss)",ARA-C-induced alopecia; [6],4
same,"Number of rats with alopecia 2+ (moderately severe, more than 50% hair loss)",ARA-C-induced alopecia; [6],1
same,"Number of rats with alopecia 3+ (total or virtually total, >90% hair loss)",ARA-C-induced alopecia; [6],0
